These results are taken from patent US8445461B2, “Pharmaceutical composition for meniere's disease” (Setsuko Takeda, priority 2007, dated 2013).

One series concerns endolymphatic hydrops. To be noted: systemic administration; cited from earlier work.
Series [1] has as its system experimental endolymphatic hydrops. The series can be described thus: Endolymphatic hydrops decompression effect: IR-L, IR-S and regression lines in the operated ear. Type of series: in vivo, guinea pigs. The settings on record: active agent 2.8 g/kg oral, alone or with additive. On the procedure:
The endolymphatic hydrops-decompression effect of saccharides or sugar alcohols was evaluated by assaying as below in triplicate. Firstly, guinea pigs received the surgical obliteration of the endolymphatic sac in the left ear to prepare “experimental model animals with endolymphatic hydrops”. The surgical obliteration of the endolymphatic sac was carried out by burning the extraskeletal portion in the endolymphatic sac with a bipolar electrocoagulator. An endolymphatic sac plays an important role in the absorption of endolymphatic fluid. The inhibition of absorption of endolymphatic fluid was caused by burning the endolymphatic sac to prepare an experimental endolymphatic hydrops. Those hydrops are progressively formed. The size of hydrops becomes constant 2 weeks to month after the surgery and maintained for several months. In detail, see Non-patent Reference 8 for the surgery.
After 1 month, they were divided into 3 groups: Group 2-1 (groups 1-6), 60 animals; Group 2-2 (groups 7-10), 40 animals; and Group 2-3 (groups 11-20), […]. The animals in Group 2-1 received saccharides or sugar alcohols alone (Reference Example 5). The animals in Group 2-2 orally received saccharides or sugar alcohols added polysaccharides. The animals in Group 2-3 received other combinations of saccharides or sugar alcohols added polysaccharides. Animals were sacrificed after the oral administration and the observation and the assessment the gastrointestinal condition, and observed the morphological change of the cochlea mainly in the operated side (left side), in particular of the endolymphatic hydrops decompression effect.
I were obtained left sides of the temporal bones immediately following fixation and kept them in 10% formalin solution for 10 days or more. They were decalcified with 5% trichloroacetic acid and dehydrated with alcohol in increasing concentration, then embedded in paraffin and celloidin. The prepared blocks were cut serially in the horizontal plane. The mid-modiolar sections were stained in hematoxylin and eosin and studied under a light microscope. For the quantitative assessment of changes of the endolymphatic space, the change ratios of the length of Reissner's membrane and the cross-sectional area of the scala media in each turn were measured from the mid-modiolar sections of the cochlea.
From these parameters, the increase ratios (%) of the length of Reissner's membrane (IR-L) and the cross-sectional area (%) of the scala media (IR-S) of a total of four turns were calculated according to the equation as described below:
The increase ratio of the length of Reissner's membrane (IR-L)=100×Σ(Lx−L*x)/ΣL*x (x: first, second, third and fourth turns)
The increase ratio of the cross-section area of the scala media (IR-S)=100×Σ(Sx−S*x)/ΣS*x (x: first, second, third and fourth turns)
Since almost no difference is shown in the regression lines of each group, it cannot be understood that there is the decompression effect of erythritol alone. When endolymphatic hydrops is formed, the cross-sectional area of scala media and the length of Reissner's membrane will increase. It can be assumed from FIG. 1 that there is statistically a primary correlation between both of them in the operated side in the control group. The regression lines are; IR-S (distilled water)=4.011+1.212*IR-L (distilled water); R2=0.987, IR-S (1 hour after)=5.409+1.1*IR-L (1 hour after); R2=0.903, IR-S (2 hours after)=1.125+0.992*IR-L (2 hours after); R2=0.98, IR-S (3 hours after)=2.407+1.309*IR-L (3 hours after); R2=0.974, IR-S (6 hours after)=7.36+1.147*IR-L (6 hours after); R2=0.895, IR-S (12 hours after)=8.089+1.152*IR-L (12 hours after); R2=0.918.
The difference of decompression effect on endolymphatic hydrops depending on dose of pectin added and time-course of the decompression effect can hardly determined by comparing and analyzing the average and standard deviation of IR-L and IR-S in the operated side in each groups. […]

Series [2] relates to guinea pigs excreting normal feces. The series can be described thus: Antidiarrheal effect: observation of feces after oral administration of saccharides or sugar alcohols with or without polysaccharides (Example 1). It is filed as in vivo. The procedure: The criteria for analyzing the conditions of feces (hardness, shape and spaces of feces in the intestine) are as shown in Table 2:
The hardness and microscopic findings of feces from the group administered with distilled water were assessed as “Normal” scoring 3, the feces having normal shape and the shape could rather easily change by pushing with fingers were assessed as “Slightly soft” scoring 2, those of which the shape had already changed or it could quite easily change by pushed with fingers were assessed as “Soft” scoring 1, and those of which the shape is muddy or watery or of no shape were assessed “Muddy” scoring 0. To be precese, there are no watery feces because of the nature of diets and thus the muddy feces correspond to watery and muddy feces in human.
Since the muddy feces comprise large content of water, they induce the high abdominal pressure and the flatulence and distension. […] In the case of gas generation, it appears that noxious symptom such as the flatulence and distension are synergistically deteriorated. Therefore, we assessed not only based on the hardness of feces, but also the size, smoothness of the surface and amount of feces.
In these experiments, I observed is the diarrhea caused by saccharides or sugar alcohols and antidiarrhreal effect of saccharides. Guinea pigs orally received saccharides or sugar alcohols, for example tetrose such as erythritol, pentose such as xylitol or xylose, hexose such as isosorbitol or the like in combination with or without polysaccharides for observation of the feces up to 6 hours after the administration.
Guinea pigs (body weight 280 to 320 g, normal feces) were divided into four groups: for Group 1-a, xylitol alone (Reference Example 1), or xylitol and xanthan gum or pectin; for Group 1-b, xylose alone (Reference Example 2), xylose and xanthan gum or pectin; for Group 1-c, erythritol alone (Reference Example 3), erythritol and pectin, erythritol and xanthan gum, or erythritol, pectin and natural aluminum silicate gel or calcium carbonate; and for Group 1-d, isosorbitol alone (Reference Example 4), or isosorbitol and xanthan gum or pectin were orally administered, respectively. The compounds are dissolved in distilled water and 8 ml/kg of said solution were administered as a single dose.
The feces were observed during 6 hours after the administration. When the animals fell into the most serious condition, the hardness and shape of the feces from said animals were assessed as the effect by saccharides or sugar alcohols in the animals.

The next series has as its system guinea pigs. The series can be described thus: Reference Example 7: erythritol or isosorbitol added jelly, conditions of feces and gastrointestinal tract. Type of series: in vivo. From the text:
As described hereinbefore, erythritol or isosorbitol as saccharides or sugar alcohols added jelly as a thickner were orally administered to 10 guinea pigs (280 to 350 g body weight) as shown in Table 41. The conditions of feces were observed.

The next series concerns endolymphatic space. To be noted: oral; cited from earlier work.
Series [3] deals with guinea pigs excreting normal feces. The series can be described thus: Antidiarrheal effect: observation of feces after oral administration of saccharides or sugar alcohols with or without polysaccharides (Example 1). Type of series: in vivo. The settings on record: maltitol 2.8 g/kg oral, alone or with additive; average of 4 animals; score 0 muddy to 4 hard.
The mark [4] stands for this setting: operated ears, 3 hours after, listed as IB alone.
The mark [5] stands for this setting: operated side, perfusion 3 hours after.
The mark [6] stands for this setting: active agent 1.4 g/kg oral, within 6 hours.
Where [7] appears, read: active agent 2.1 g/kg oral, within 6 hours.
[8] abbreviates: active agent 2.8 g/kg oral, alone or with additive of the label.
Where [9] appears, read: active agent 2.8 g/kg oral, alone or with additives of the label, most serious condition within 6 hours.
Setting [10] is: active agent 3.5 g/kg oral, alone or with additive of the label, within 6 hours.
The mark [11] stands for this setting: active agent 5.6 g/kg oral, alone or with additive of the label, within 6 hours.
[12] abbreviates: agent 2.8 g/kg oral + Jelly 0.1 g/kg, 5 animals.
The mark [13] stands for this setting: agent 2.8 g/kg oral + Jelly 0.25 g/kg, 5 animals.
Setting [14] is: agent 2.8 g/kg oral, no additive dosage (agent alone).
The mark [15] stands for this setting: maltitol 2.8 g/kg oral, alone or with additive of the label (Table 6).
Where [16] appears, read: maltitol 2.8 g/kg oral, alone or with additive, average of 4 animals, score 0 muddy to 4 hard.

Several values for one entry are separate records, joined by “and”; a condition that tells them apart may be missing. Identical values can stand only once.

For `Cc1ccccc1C(=O)Nc1ccc(C(=O)N2CCCC(N(C)C)c3ccccc32)cc1` (centres unmarked) [OPC 31260], in the series on endolymphatic hydrops, the “Decompression effect on endolymphatic hydrops” value is listed as “did not reveal the decompression effect” and the “Effect in the normal ear” value is reported as “formation of endolymphatic hydrops in the normal ear”.
As for `O[C@@H]1CO[C@H]2[C@@H]1OC[C@@H]2O` [Isosorbitol], in series [1] (setting [4]), the “Regression line IR-S vs IR-L: Y-intercept” value was 7.143 and 6.542; the “Regression line IR-S vs IR-L: slope” value is 1.003 and 1.011. Moreover, in series [1] (setting [5]), the “IR-L (%) increase ratio of the length of Reissner's membrane” value turned out to be 31.3 ± 36.5% and the “IR-S (%) increase ratio of the cross-sectional area of the scala media” value is on record as 40.9 ± 38.2%. In series [2] (setting [6]), the “Hardness of feces: Muddy (number of animals)” value (“Hardness of feces: Muddy” below) came to 0, the “Hardness of feces: Normal (number of animals)” value (from here on “Hardness of feces: Normal”) stood at 3, the “Hardness of feces: Slightly soft (number of animals)” value (“Hardness of feces: Slightly soft” below) is listed as 1 and the “Hardness of feces: Soft (number of animals)” value (from here on “Hardness of feces: Soft”) is reported as 0. In series [2] (setting [7]), the “Hardness of feces: Muddy” value was determined as 0, the “Hardness of feces: Normal” value amounted to 0, the “Hardness of feces: Slightly soft” value was 2 and the “Hardness of feces: Soft” value was found to be 2. In addition, in series [2] (setting [8]), the “Time after administration of the peak (most serious) diarrhea” value is reported as “Three to four hours after”, the “Time after administration when diarrhea / softening of feces started” value came out at 2 h and the “Time after administration when feces recovered to (almost) normal” value is 6 h. Also, in series [2] (setting [9]), the “Hardness of feces: Muddy” value stood at 1, the “Hardness of feces: Normal” value is given as 2, the “Hardness of feces: Slightly soft” value stood at 2 and the “Hardness of feces: Soft” value turned out to be 2. Further, in series [2] (setting [10]), the “Hardness of feces: Muddy” value is listed as 3, the “Hardness of feces: Normal” value stood at 0, the “Hardness of feces: Slightly soft” value came to 0 and the “Hardness of feces: Soft” value came out at 1. Further, in series [2] (setting [11]), the “Hardness of feces: Muddy” value is listed as 3, the “Hardness of feces: Normal” value stood at 0, the “Hardness of feces: Slightly soft” value is 0 and the “Hardness of feces: Soft” value came to 0. In addition, in the series with guinea pigs (setting [12]), the “Hardness of feces: Muddy” value amounted to 1, the “Hardness of feces: Normal” value is on record as 2, the “Hardness of feces: Slightly soft” value is given as 0 and the “Hardness of feces: Soft” value is reported as 2. Besides, in the series with guinea pigs (setting [13]), the “Hardness of feces: Muddy” value is 0, the “Hardness of feces: Normal” value is on record as 2, the “Hardness of feces: Slightly soft” value worked out at 0 and the “Hardness of feces: Soft” value was 3. In the series on guinea pigs (setting [14]), the “Hardness of feces: Muddy” value was 1, the “Hardness of feces: Normal” value came to 2, the “Hardness of feces: Slightly soft” value was found to be 2 and the “Hardness of feces: Soft” value turned out to be 3. Also, the “Time until exertion of effect after the oral administration” value in the series with endolymphatic space was approximately 6 h.
Turning to `OC[C@@H](O)[C@@H](O[C@H]1O[C@H](CO)[C@@H](O)[C@H](O)[C@H]1O)[C@H](O)[C@@H](O)CO` [Maltitol, maltitol], in series [2] (setting [8]), the “Abdominal distension / gas by inspections and palpations” value is on record as “abdominal distension was observed”; the “Time after administration when diarrhea / softening of feces started” value came out at 3 h; the “Time after administration when feces recovered to (almost) normal” value is not below 24 h. Besides, in series [2] (setting [15]), the “Hardness of feces: Hard (number of animals)” value was 0, the “Hardness of feces: Muddy” value was 6, the “Hardness of feces: Normal” value is on record as 0 and the “Hardness of feces: Slightly soft” value stood at 0. Moreover, the “Hardness of feces: Soft” value in series [2] (setting [15]) was found to be 0. Besides, in series [2] (setting [16]), the “Hardness of feces (average score), 1 hr after the administration” value was determined as 3; the “Hardness of feces (average score), 2 hr after the administration” value is listed as 2.3; the “Hardness of feces (average score), 3 hr after the administration” value is listed as 1.7; the “Hardness of feces (average score), 4 hr after the administration” value came out at 0.2. In addition, in series [2] (setting [16]), the “Hardness of feces (average score), 5 hr after the administration” value is recorded as 0 and the “Hardness of feces (average score), 6 hr after the administration” value is 0. In series [3], the “Hardness of feces (average score), 12 hr after the administration” value was found to be 0; the “Hardness of feces (average score), 18 hr after the administration” value is on record as 1.2; the “Hardness of feces (average score), 24 hr after the administration” value stood at 2.5.
